Consider five compounds from paper PMC11938010, “Positive Charge in an Antimalarial Compound Unlocks Broad-Spectrum Antibacterial Activity” (JACS Au, 2025).

Molecules are shown by their SMILES. ≈ marks a conversion by molar mass, not a printed value. Like-named read-outs stand apart in the source and are kept apart here.

In data set [1] the test system is Pseudomonas aeruginosa PA14. The data set is described as follows: In vitro antibacterial activity (growth inhibition, OD600), P. aeruginosa. Type of data set: cell-based. Particulars: PA14, 50 μM compound, Table 1 and main text, read-out: PA14 inh. at 50 μM.
The subject of data set [2] is Streptococcus pneumoniae (DSM20566). The data set is described as follows: In vitro antibacterial activity (MIC), S. pneumoniae. The settings on record: Streptococcus pneumoniae, DSM20566, read-out: Sp MIC95. It is filed as cell-based.
Data set [3] relates to Staphylococcus aureus ssp. Aureus. The data set is described as follows: In vitro antibacterial activity (MIC), S. aureus. Type of data set: cell-based. The settings on record: Staphylococcus aureus, read-out: Sa MIC95.
Data set [4] concerns Plasmodium falciparum NF54. Briefly: P. falciparum in vitro drug sensitivity assay on asexual blood stage parasites ([3H]-hypoxanthine incorporation). It is filed as cell-based. Particulars: Plasmodium falciparum, NF54, Table 1 and main text; read-out: PfNF54 IC50.
The subject of data set [5] is Mycobacterium tuberculosis (Mtb) strain H37Rv. The data set is described as follows: microbe, parasite or virus in culture. Type of data set: cell-based. The settings on record: 168 h, 7 days, footnote b: not active at maximum solubility, read-out: MtbH37Rv MIC90.
The next data set deals with Escherichia coli ∆tolC. The data set is described as follows: microbe, parasite or virus in culture. It is filed as cell-based. The settings on record: Escherichia coli.
The next data set in a line: in vitro. Particulars: human, HepG2 CC50, 48 h, MTT.
A further data set is described as follows: Solubility in 7H9 medium. It is filed as physicochemical. Particulars: M. tuberculosis growth medium (7H9).
In the next data set the test system is E. coli K12. Briefly: In vitro antibacterial activity (growth inhibition, OD600), E. coli wild-type. Type of data set: cell-based. The settings on record: Escherichia coli; for inhibition at 50 µM: Table 1 and main text.
The test system of another data set is Acinetobacter baumannii. The data set is described as follows: In vitro antibacterial activity (growth inhibition, OD600), A. baumannii. Type of data set: cell-based. Particulars: for inhibition at 50 µM: 50 μM compound, read-out: Ab inh. at 50 μM; for MIC: read-out: Ab MIC95.
Data set [6] can be described thus: In vitro cytotoxicity by XTT assay. Type of data set: cell-based. The settings on record: human, human monocyte-derived macrophages (hMdM).
Setting [7] is: Table S2, with standard deviation.
Setting [8] is: K12, 50 μM compound, read-out: EcK12 inh. at 50 μM.

As for `NCc1cccc(NC(=O)c2cc(-c3cc(Cl)ccc3O)[nH]n2)c1` [Compound 7A], the inhibition at 50 µM in data set [1] stood at 44%; in the data set with E. coli K12 (setting [8]), 27%; with Acinetobacter baumannii (Table 1 and main text), 15%. Moreover, the MIC was 43 µM (≈ 14.7 µg/mL) in [2] (Table 1 and main text); 43 ± 11 µM (≈ 14.7 µg/mL) in [2] (setting [7]); > 50 µM in data set [3] (Table 1 and main text); > 50 µM in data set [3] (setting [7]); 47 µM (≈ 16.1 µg/mL) in the data set with Escherichia coli ∆tolC (read-out: EcΔtolC MIC95); 47 ± 1 µM (≈ 16.1 µg/mL) in the data set with Escherichia coli ∆tolC (read-out: Ec∆tolC MIC95 (µM)). The IC50 in data set [4] is 0.3 µM. For the same compound, the MIC90 in [5] was > 64 µM. This compound also yielded a CC50 in “in vitro” of 28.4 µM. Further, the “7h9 media Sol.” value in “Solubility in 7H9 medium” came out at 64 µM.
`N=C(N)NCc1ccc(NC(=O)c2cc(-c3cc(Cl)ccc3O)[nH]n2)cc1C(F)(F)F` [Compound 10G]: the inhibition at 50 µM was determined as 55% in data set [1]; 86% in the data set with E. coli K12 (setting [8]); 49% in the data set on Acinetobacter baumannii (Table 1 and main text). In addition, the MIC in [2] (Table 1 and main text) came out at 16 µM (≈ 7.25 µg/mL); in data set [2] (setting [7]), 16 ± 5 µM (≈ 7.25 µg/mL); in data set [3] (Table 1 and main text) it was 5 µM (≈ 2.26 µg/mL); in [3] (setting [7]) it was 5 ± 1 µM (≈ 2.26 µg/mL); with Escherichia coli ∆tolC (read-out: EcΔtolC MIC95), 3.5 µM (≈ 1.58 µg/mL); in the data set on Escherichia coli ∆tolC (read-out: Ec∆tolC MIC95 (µM)) it was 3.5 ± 0.8 µM (≈ 1.58 µg/mL). The IC50 in data set [4] was 0.25 µM. Further, the MIC90 in data set [5] stood at 8 µM (≈ 3.62 µg/mL). In addition, the CC50 in “in vitro” was > 50 µM. Besides, the CC90 at 24 h in data set [6] was > 32 µM.
Turning to `N=C(N)N1CCN(c2cc(NC(=O)c3cc(-c4cc(Cl)ccc4O)[nH]n3)cc(C(F)(F)F)c2)CC1` [Compound 11G, N-(3-(4-Carbamimidoylpiperazin-1-yl)-5-(trifluoromethyl)phenyl)-5-(5-chloro-2-hydroxyphenyl)-1H-pyrazole-3-carboxamide], the inhibition at 50 µM in data set [1] is 25%. Besides, the MIC turned out to be 28 µM (≈ 14.2 µg/mL) in [2] (Table 1 and main text); 28 ± 15 µM (≈ 14.2 µg/mL) in [2] (setting [7]); 3.2 µM (≈ 1.63 µg/mL) in data set [3] (Table 1 and main text); 3.2 ± 0.1 µM (≈ 1.63 µg/mL) in data set [3] (setting [7]); 4 µM (≈ 2.03 µg/mL) in the data set on Escherichia coli ∆tolC (read-out: EcΔtolC MIC95); 4 ± 1 µM (≈ 2.03 µg/mL) in the data set on Escherichia coli ∆tolC (read-out: Ec∆tolC MIC95 (µM)). The MIC was determined as 48 ± 5 µM (≈ 24.4 µg/mL) in the data set with E. coli K12 (K12, Table S1, printed inside the inhibition column, with standard deviation, unit from Table 1 footnote, read-out: EcK12 MIC95); 17 ± 5 µM (≈ 8.63 µg/mL) with Acinetobacter baumannii (Table S1, printed inside the inhibition column, with standard deviation, unit from Table 1 footnote); 17 µM (≈ 8.63 µg/mL) in the data set on Acinetobacter baumannii (printed inside the Ab inhibition column, Table 1 and main text). Besides, the IC50 in [4] is 0.5 µM. Moreover, the MIC90 in data set [5] was found to be 8 µM (≈ 4.06 µg/mL). The CC50 in the data set “in vitro” is > 25 µM. The CC90 at 24 h in [6] is > 32 µM.
As for `N=C(N)N1CCN(c2ccc(NC(=O)c3cc(-c4cc(Cl)ccc4O)[nH]n3)cc2C(F)(F)F)CC1` [Compound 12G, N-(4-(4-Carbamimidoylpiperazin-1-yl)-3-(trifluoromethyl)phenyl)-5-(5-chloro-2-hydroxyphenyl)-1H-pyrazole-3-carboxamide], the inhibition at 50 µM in data set [1] was < 10%; in the data set on E. coli K12 (setting [8]) it was 51%; with Acinetobacter baumannii (Table 1 and main text), 33%. In addition, the MIC worked out at 31 µM (≈ 15.7 µg/mL) in [2] (Table 1 and main text); 31 ± 6 µM (≈ 15.7 µg/mL) in data set [2] (setting [7]); 2.4 µM (≈ 1.22 µg/mL) in data set [3] (Table 1 and main text); 2.4 ± 0.3 µM (≈ 1.22 µg/mL) in data set [3] (setting [7]); 2.8 µM (≈ 1.42 µg/mL) with Escherichia coli ∆tolC (read-out: EcΔtolC MIC95); 2.8 ± 0.3 µM (≈ 1.42 µg/mL) in the data set with Escherichia coli ∆tolC (read-out: Ec∆tolC MIC95 (µM)). The IC50 in data set [4] stood at 0.2 µM. Further, in data set [5], the MIC90 stood at 4 µM (≈ 2.03 µg/mL). Besides, the CC50 in the data set “in vitro” worked out at 30 µM. In data set [6], this compound displayed a CC90 at 24 h of 32 µM.
With `N=C(N)N1CCN(c2cc(NC(=O)c3cc(-c4cc(Cl)ccc4O)[nH]n3)ccc2C(F)(F)F)CC1` [Compound 13G, N-(3-(4-Carbamimidoylpiperazin-1-yl)-4-(trifluoromethyl)phenyl)-5-(5-chloro-2-hydroxyphenyl)-1H-pyrazole-3-carboxamide], the inhibition at 50 µM in [1] is 17%; in the data set on E. coli K12 (K12, read-out: EcK12 inh. at 50 μM, 50 μM compound), ≥ 45%; in the data set on Acinetobacter baumannii (Table 1 and main text), ≥ 45%. For the same compound, the MIC in [2] (Table 1 and main text) was found to be 16 µM (≈ 8.13 µg/mL); in data set [2] (setting [7]) it was 16 ± 6 µM (≈ 8.13 µg/mL); in data set [3] (Table 1 and main text), 2.5 µM (≈ 1.27 µg/mL); in data set [3] (setting [7]), 2.5 ± 0.3 µM (≈ 1.27 µg/mL); in the data set with Escherichia coli ∆tolC (read-out: EcΔtolC MIC95) it was 5 µM (≈ 2.54 µg/mL); in the data set with Escherichia coli ∆tolC (read-out: Ec∆tolC MIC95 (µM)), 5 ± 2 µM (≈ 2.54 µg/mL). The half-maximal inhibitory concentration (IC50) in data set [4] came to 0.5 µM. The MIC90 in data set [5] worked out at 8 µM (≈ 4.06 µg/mL). Also, the CC50 in “in vitro” was > 25 µM. The CC90 at 24 h in data set [6] was > 32 µM.

What is called IC50 is the concentration that gives 50% inhibition.
